| SMILES | melting point [°C] |
| --- | --- |
| Cc1nc(-c2ccc([N+](=O)[O-])c(C)c2)c[nH]1 | 158 to 160 |
| CN(C)C(=C[N+](=O)[O-])NCc1ccc(Cl)cc1 | 133 to 135 |
| CC(C)c1nc(CN(C)C(=O)NC(C(=O)NC(Cc2ccccc2)CC(O)C(Cc2ccccc2)NC(=O)OCc2ccno2)C(C)C)cs1 (centres undefined) | 60 to 62 |
| Cc1cc(C)c(N)c(C(N)=O)c1 | 162 to 167 |
| CC(C)C1(C)NC(c2ncc(CO)cc2C(=O)O)=NC1=O (centres undefined) | 170 to 172 |
| O=c1[nH]c(NCCSCc2cccs2)ncc1Cc1cccnc1 | 145 to 148 |
| O=C(Nc1ccccc1S(=O)(=O)c1ccccc1)N[C@@H](Cc1ccc(Nc2nccc3ccncc23)cc1)C(=O)O | 184 |
| COCCCc1cccc(C2(c3ccc(OC(F)F)cc3)N=C(N)N(C)C2=O)c1 (centres undefined) | 48 to 50 |
| COc1cccc(S(=O)(=O)n2c(COC(C)(C)C(=O)O)cc3nc(Cl)ccc32)c1 | 130 |
| Nc1cc(Oc2cc(N)cc(C(F)(F)F)c2)cc(C(F)(F)F)c1 | 223 to 224 |
| COCCOc1cc(OC)c2c(=O)[nH]c(-c3cc(C)nc(C)c3)nc2c1 | 229 to 230 |
| Cc1nnsc1C(=O)Nc1ccc(-n2nc(C(F)(F)F)cc2C)cc1 | 51 to 53 |
| CCCOc1ccccc1C1=NC(=O)C2=NC(SC)=NC2=N1 | 245 to 247 |
| Cc1oc(-c2ccco2)nc1COc1ccc(COc2ccccc2CC(=O)O)cc1 | 167 to 168 |
| CC(=O)C1CCC2C3CCC4CC(C)(O)CCC4(C)C3C(=O)CC12C (centres undefined) | 175 |
| CCOC(=O)C=Cc1ccc(OCCCc2ccccc2)c([N+](=O)[O-])c1 | 67 to 69 |
| CC1CN(c2ccccc2)N=C1NC(=O)C(F)(F)F (centres undefined) | 142 to 144 |
| Nc1cccc(-c2nc3n(n2)Cc2ccccc2-3)c1 | 163 to 164 |
| COc1ccc(Sc2cnc(N)s2)cc1 | 119 to 120 |
| CC(=Cc1ccccc1)CN1CCc2nc(N)sc2CC1 | 112 to 115 |
| CC(CO)c1ccc(-c2ccc(F)cc2F)c(F)c1 (centres undefined) | 58 to 59 |
| COc1ccc(S(=O)(=O)c2c(Br)cc(CC(=O)O)cc2Br)cc1C(C)C | 170 to 173 |
| CSc1nc2ccccc2c(-c2ccccc2)c1C(=O)N(C)Cc1cc(C(F)(F)F)cc(C(F)(F)F)c1 | 144 to 145 |
| COc1ccc(S(=O)(=O)N2C(=O)C(N)(c3ccccc3)c3cc(Cl)ccc32)c(OC)c1 (centres undefined) | 108 to 110 |
| CC1(C)Oc2ccc([N+](=O)[O-])cc2C(n2ccccc2=O)=C1NC(=O)C(F)(F)F | 189 |
| C#CCNc1nc(NCC=C)nc2c(C)csc12 | 95 to 96 |
| CCOC(=O)c1c(CCl)nc2sc(C)c(C)c2c1-c1ccc(Cl)cc1 | 132 to 144 |
| O=C1c2ccccc2CN1CCCOc1ccncc1 | 70 to 71 |
| O=C(O)c1ccc(CC(=O)c2ccccc2Cl)cc1 | 168 to 172 |

The remaining lines, values ahead:

| melting point [°C] | SMILES |
| --- | --- |
| 126 to 127 | CCCCc1ccc(-c2nc3c(s2)C(=O)C(NCCN(C)C)=CC3=O)cc1 |
| 185 to 187 | COc1cc2c(Nc3ccc4cn[nH]c4c3)c(C#N)cnc2cc1OCCN(C)CC1OCCO1 |
| 107 to 110 | COC(=O)c1ccc(NC(=O)c2ccccc2OC(C)C)c(C(=O)OC)c1 |
| 128 to 130 | CCCCN(CCCC)CCNC(=O)c1cccc(NC(=O)N2CCc3cc(SC)c(C(F)(F)F)cc32)c1 |
| 48 to 63 | O=C(Oc1ccc(Oc2ccccc2)cc1)N1CCC(OC(=O)N2CCC(OC(=O)N3CCC4(CCCC4)CC3)CC2)CC1 |
| 200 | COCCO[C@@H]1c2ccc3c(nc(C)n3C)c2O[C@H](c2ccccc2)[C@H]1OC(=O)COC |
| 93.9 | OC(c1cccc(Br)c1)C1c2ccccc2CCc2ccccc21 (centres undefined) |
| 166 to 168 | CCOc1nc(N2CCNCC2)nc(N2CCSCC2)c1[N+](=O)[O-] |
| 210 to 211 | CCCCc1nc(C)n2[nH]c(=O)nc2c1Cc1ccc(-c2ccccc2C(=O)O)cc1 |
| 177 to 179 | CNc1nc(-c2cncc(-c3ccccc3)c2)c2cc(OC)c(OC)cc2n1 |
| 129 to 130 | C=C(C)COc1cc(C)c(NC(=O)CC(C)(C)C)c(C)c1Cc1ccc(C(C)C)cc1 |
| 170 to 172 | CC(C)(C)c1cc(Oc2c(Cl)cc(C(F)(F)F)cc2Cl)n[nH]1 |
| 134 to 135 | CC(C)(C)c1ccc(CC(=O)CCC2CCCCC2)cc1NC(=O)CC1c2ccccc2Oc2ccccc21 |
| 91.5 to 93 | [N-]=[N+]=NC[C@H]1CN(c2ccc(N3CCSCC3)c(F)c2)C(=O)O1 |
| 88 to 90 | CC(C(=O)c1ccncc1)c1ccc(C2=CCCCC2)cc1 (centres undefined) |
| 205 | NC(=O)c1nsc(N)c1C(N)=O |
| 87 to 89 | BrCCCCCCOc1nc(-c2ccccc2)c(-c2ccccc2)n1-c1ccccc1 |
| 216 to 221 | CC(OC(N)=O)c1cc2c3ccccc3n(C)c(=O)n2n1 (centres undefined) |
| 153 to 154 | CCCCC(=NO)C(C)(C)NOC(CNC(C)(C)C(CC)=NO)Cn1ccnc1[N+](=O)[O-] (centres undefined) |
| 64 to 66 | CC(C)(C)C(=O)c1cncnc1 |

| melting point [°C] | SMILES |
| --- | --- |
| 200 to 202 | O=Cc1ccc2c(c1)ncn2-c1cccc(-c2cccnc2)c1 |
| 158 to 161 | Cn1c2c(cnc3ccccc32)c(=O)n1-c1ccc(Cl)cc1 |
| 250 | COc1ccc(Nc2cc(C)nc(N)n2)cc1Cl |
| 218 to 220 | COc1cccc2c(Nc3ccccc3C)nc(N)nc12 |
| 174 to 176 | COc1ccc(NC(=O)c2ccc(F)c(F)c2)cc1NCc1cccc(O)c1 |
| > 250 | CC1(C)C(=O)Nc2cc3oc(-c4csnn4)nc3cc21 |
| 184 to 186 | CC(O)(c1ccc(F)cc1)C1CCNCC1 (centres undefined) |
| 132 | CCOc1ccc2c(c1)C(C)(c1cc(CN3CCCC3)ccc1Cl)C(=O)N2S(=O)(=O)c1ccc(C(=O)NC(C)(C)C)cc1OC (centres undefined) |
| 91 | CC(C)(C)c1cc(S[C@@H]2CCCC[C@H]2O)cc(C(C)(C)C)c1O (relative stereo) |
| 221 to 223 | O=S(=O)(Nc1nc(O)ncc1F)c1ccccc1 |
| 252 to 254 | Cc1[nH]c(C(=O)Nc2ccc(C#N)cc2)c(C)c1-c1nc2ccc(C(=O)c3ccccc3)cc2[nH]1 |
| 210 to 212 | Cc1ccccc1-c1c(NC(=O)Nc2ccc(F)cc2F)c(=O)oc2ccc(Cl)cc12 |
| 165 to 166 | COc1cc2c(cc1OC)CC(NC(=O)N(C)O)C2 |
| 263 | CC1N(CCCCS(=O)(=O)O)c2ccc3ccccc3c2C1(C)C (centres undefined) |
| 113 to 120 | CC1(C)CN(c2ccncc2)c2ccc(S(=O)(=O)c3ccccc3)cc2O1 |
| 278 to 280 | Cc1ccc2oc(=O)c(-c3cc(O)c(O)c(C#N)c3)nc2c1 |
| 99 to 102 | COc1c2c(c(OC)c(OC)c1OC)CC(CCCCOc1ccc(C(=O)N(C)C)cc1)C2 |
| 242 to 244 | O=C1CC(c2cccc(-c3nc(C(=O)NCCO)co3)c2)=Nc2ccc(-n3cccc3)cc2N1 |
| 118 | CCOC(=O)c1nn(Cc2ccc(Cl)c(Cl)c2)c(-c2ccc(Cl)cc2)c1C |
| 72 to 74 | CCOCc1nc2c(N)nc(C)cc2n1CC(C)C |
